Reference: patent publication US12565505B2, “mTORC modulators and uses thereof” (Aeovian Pharmaceuticals, Inc., priority 2019, dated 2026)
Where two headings read alike, the source gives them in different places.

How the values were obtained:
[1] = molecular target: T1, mTORC2 (Homo sapiens, UniProt P42345+P62942); test: Inhibition assay for mTORC2: phosphorylation of pAkt at Ser473, AlphaLISA SureFire in PC3 cells; assay type: cell-based; details: 24 hours treatment, analogs substituted at C40 and C16 (C16 diastereomer mixtures not isolated)
T1 construct: endogenous in cells; host or cells: PC3 cells (human prostate adenocarcinoma)
Method: The IC50s of the inhibition of mTORC1 and mTORC2 were determined in vitro by determining the phosphorylation of pS6K at position Thr389 (mTORC1 inhibition) and pAkt at Ser473 (mTORC2 inhibition). In vitro studies were performed with AiphaLISA® technology using PC3 cells (Prostate Adenocarcinoma; Human (Homo sapiens)). The cells were seeded in 96 well plates and were treated for 24 hours with the different compounds. […] All analysis were performed using GraphPad Prism 7.0 (GraphPad Software, San Diego, USA). […]

[2] = molecular target: T2, mTORC1 (Homo sapiens, UniProt P42345+P62942); test: Inhibition assay for mTORC1: phosphorylation of pS6K at Thr389, AlphaLISA SureFire in PC3 cells; assay type: cell-based
T2 construct: endogenous in cells; host or cells: PC3 cells (human prostate adenocarcinoma)
Method: The IC50s of the inhibition of mTORC1 and mTORC2 were determined in vitro by determining the phosphorylation of pS6K at position Thr389 (mTORC1 inhibition) and pAkt at Ser473 (mTORC2 inhibition). In vitro studies were performed with AiphaLISA® technology using PC3 cells (Prostate Adenocarcinoma; Human (Homo sapiens)). The cells were seeded in 96 well plates and were treated for 24 hours with the different compounds. […] All analysis were performed using GraphPad Prism 7.0 (GraphPad Software, San Diego, USA).
Tables 5-7 include PIC50 values for mTORC1 of selected compounds; with compounds having an PIC50 for mTORC1 of >9.5 as A, 8.5 to 9.5 as B, and less than 8.5 as C.

[3] = PC3 cells, read-out: pIC50 mTORC2 (converted)
[4] = PC3 cells, 24 hours treatment, pS6K Thr389, analogs substituted at C40 and C16 (C16 diastereomer mixtures not isolated), read-out: pIC50 mTORC1 (converted)

| SMILES | IC50 [1, 3] [nM] | IC50 ([1]; pIC50 mTORC2, PC3 cells) [nM] | IC50 [2] [nM] | IC50 [2, 4] [nM] |
| --- | --- | --- | --- | --- |
| CO[C@@H]1C[C@H](C[C@@H](C)[C@@H]2CC(=O)[C@H](C)/C=C(\C)[C@@H](O)[C@@H](OC)C(=O)[C@H](C)C[C@H](C)/C=C/C=C/C=C(\C)C(OCCO)C[C@@H]3CC[C@@H](C)[C@@](O)(O3)C(=O)C(=O)N3CCCC[C@H]3C(=O)O2)CC[C@H]1OCCCN1CCO[C@H](C)C1 (mixture of isomers) [Compound 13] | > 10000 | – | – | – |
| CO[C@@H]1C[C@H](C[C@@H](C)[C@@H]2CC(=O)[C@H](C)/C=C(\C)[C@@H](O)[C@@H](OC)C(=O)[C@H](C)C[C@H](C)/C=C/C=C/C=C(\C)C(OCCCCO)C[C@@H]3CC[C@@H](C)[C@@](O)(O3)C(=O)C(=O)N3CCCC[C@H]3C(=O)O2)CC[C@H]1OCCCO (mixture of isomers) [Compound 68] | 1000 to 10000 | – | – | < 0.316 |
| CO[C@@H]1C[C@H](C[C@@H](C)[C@@H]2CC(=O)[C@H](C)/C=C(\C)[C@@H](O)[C@@H](OC)C(=O)[C@H](C)C[C@H](C)/C=C/C=C/C=C(\C)C(OCCO)C[C@@H]3CC[C@@H](C)[C@@](O)(O3)C(=O)C(=O)N3CCCCC3C(=O)O2)CC[C@H]1OCCN1CCOCC1 (stereo partly shown) [Compound 8] | > 10000 | – | – | < 0.316 |
| CO[C@@H]1C[C@H](C[C@@H](C)[C@@H]2CC(=O)[C@H](C)/C=C(\C)[C@@H](O)[C@@H](OC)C(=O)[C@H](C)C[C@H](C)/C=C/C=C/C=C(\C)C(OCCO)C[C@@H]3CC[C@@H](C)[C@@](O)(O3)C(=O)C(=O)N3CCCCC3C(=O)O2)CC[C@H]1OCCO (stereo partly shown) [Compound 9] | > 10000 | – | – | < 0.316 |
| COCCOC1C[C@@H]2CC[C@@H](C)[C@@](O)(O2)C(=O)C(=O)N2CCCCC2C(=O)O[C@H]([C@H](C)C[C@@H]2CC[C@@H](OC)[C@H](OC)C2)CC(=O)[C@H](C)/C=C(\C)[C@@H](O)[C@@H](OC)C(=O)[C@H](C)C[C@H](C)/C=C/C=C/C=C/1C (stereo partly shown) [Compound 11] | > 10000 | – | – | < 0.316 |
| CO[C@@H]1C[C@H](C[C@@H](C)[C@@H]2CC(=O)[C@H](C)/C=C(\C)[C@@H](O)[C@@H](OC)C(=O)[C@H](C)C[C@H](C)/C=C/C=C/C=C(\C)C(OCCO)C[C@@H]3CC[C@@H](C)[C@@](O)(O3)C(=O)C(=O)N3CCCCC3C(=O)O2)CC[C@H]1OCCCN1CCOC(C)(C)C1 (stereo partly shown) [Compound 12] | > 10000 | – | – | < 0.316 |
| CO[C@@H]1C[C@H](C[C@@H](C)[C@@H]2CC(=O)[C@H](C)/C=C(\C)[C@@H](O)[C@@H](OC)C(=O)[C@H](C)C[C@H](C)/C=C/C=C/C=C(\C)C(OCCO)C[C@@H]3CC[C@@H](C)[C@@](O)(O3)C(=O)C(=O)N3CCCCC3C(=O)O2)CC[C@H]1OCCCN1C[C@@H](C)O[C@@H](C)C1 (stereo partly shown) [Compound 18] | > 10000 | – | – | < 0.316 |
| CO[C@@H]1CC[C@@H](C[C@@H](C)[C@@H]2CC(=O)[C@H](C)/C=C(\C)[C@@H](O)[C@@H](OC)C(=O)[C@H](C)C[C@H](C)/C=C/C=C/C=C(\C)C(OCCCO)C[C@@H]3CC[C@@H](C)[C@@](O)(O3)C(=O)C(=O)N3CCCCC3C(=O)O2)C[C@H]1OC (stereo partly shown) [Compound 19] | > 10000 | – | – | < 0.316 |
| COCCCO[C@@H]1CC[C@@H](C[C@@H](C)[C@@H]2CC(=O)[C@H](C)/C=C(\C)[C@@H](O)[C@@H](OC)C(=O)[C@H](C)C[C@H](C)/C=C/C=C/C=C(\C)C(OCCOCCOC)C[C@@H]3CC[C@@H](C)[C@@](O)(O3)C(=O)C(=O)N3CCCCC3C(=O)O2)C[C@H]1OC (stereo partly shown) [Compound 23] | > 10000 | – | – | < 0.316 |
| CO[C@@H]1CC[C@@H](C[C@@H](C)[C@@H]2CC(=O)[C@H](C)/C=C(\C)[C@@H](O)[C@@H](OC)C(=O)[C@H](C)C[C@H](C)/C=C/C=C/C=C(\C)C(OCCCCO)C[C@@H]3CC[C@@H](C)[C@@](O)(O3)C(=O)C(=O)N3CCCCC3C(=O)O2)C[C@H]1OC (stereo partly shown) [Compound 24] | > 10000 | – | – | < 0.316 |
| COCCOC1C[C@@H]2CC[C@@H](C)[C@@](O)(O2)C(=O)C(=O)N2CCCCC2C(=O)O[C@H]([C@H](C)C[C@@H]2CC[C@@H](OC(=O)N(C)CCN3CCOCC3)[C@H](OC)C2)CC(=O)[C@H](C)/C=C(\C)[C@@H](O)[C@@H](OC)C(=O)[C@H](C)C[C@H](C)/C=C/C=C/C=C/1C (stereo partly shown) [Compound 25] | 1000 to 10000 | – | – | < 0.316 |
| COCCOC1C[C@@H]2CC[C@@H](C)[C@@](O)(O2)C(=O)C(=O)N2CCCCC2C(=O)O[C@H]([C@H](C)C[C@@H]2CC[C@@H](OCCOC)[C@H](OC)C2)CC(=O)[C@H](C)/C=C(\C)[C@@H](O)[C@@H](OC)C(=O)[C@H](C)C[C@H](C)/C=C/C=C/C=C/1C (stereo partly shown) [Compound 29] | > 10000 | – | – | < 0.316 |
| COCCOC1C[C@@H]2CC[C@@H](C)[C@@](O)(O2)C(=O)C(=O)N2CCCCC2C(=O)O[C@H]([C@H](C)C[C@@H]2CC[C@@H](OC(=O)NCCN3CCOCC3)[C@H](OC)C2)CC(=O)[C@H](C)/C=C(\C)[C@@H](O)[C@@H](OC)C(=O)[C@H](C)C[C@H](C)/C=C/C=C/C=C/1C (stereo partly shown) [Compound 30] | 1000 to 10000 | – | – | < 0.316 |
| COCCOC1C[C@@H]2CC[C@@H](C)[C@@](O)(O2)C(=O)C(=O)N2CCCCC2C(=O)O[C@H]([C@H](C)C[C@@H]2CC[C@@H](OCCCN3CCN(C)CC3)[C@H](OC)C2)CC(=O)[C@H](C)/C=C(\C)[C@@H](O)[C@@H](OC)C(=O)[C@H](C)C[C@H](C)/C=C/C=C/C=C/1C (stereo partly shown) [Compound 32] | 1000 to 10000 | – | – | < 0.316 |
| COCCOC1C[C@@H]2CC[C@@H](C)[C@@](O)(O2)C(=O)C(=O)N2CCCCC2C(=O)O[C@H]([C@H](C)C[C@@H]2CC[C@@H](OCCCN3CCCCC3)[C@H](OC)C2)CC(=O)[C@H](C)/C=C(\C)[C@@H](O)[C@@H](OC)C(=O)[C@H](C)C[C@H](C)/C=C/C=C/C=C/1C (stereo partly shown) [Compound 35] | 1000 to 10000 | – | – | < 0.316 |
| CO[C@@H]1C[C@H](C[C@@H](C)[C@@H]2CC(=O)[C@H](C)/C=C(\C)[C@@H](O)[C@@H](OC)C(=O)[C@H](C)C[C@H](C)/C=C/C=C/C=C(\C)C(OCCO)C[C@@H]3CC[C@@H](C)[C@@](O)(O3)C(=O)C(=O)N3CCCCC3C(=O)O2)CC[C@H]1OCCCN1CCO[C@H](C)C1 (stereo partly shown) [Compound 43] | 1000 to 10000 | – | – | – |

More lines, now with the values ahead:

| IC50 [1, 3] [nM] | IC50 ([1]; pIC50 mTORC2, PC3 cells) [nM] | IC50 [2] [nM] | IC50 [2, 4] [nM] | SMILES |
| --- | --- | --- | --- | --- |
| – | > 10000 | < 0.316 | – | COCCOCCOC1C[C@@H]2CC[C@@H](C)[C@@](O)(O2)C(=O)C(=O)N2CCCC[C@H]2C(=O)O[C@H]([C@H](C)C[C@@H]2CC[C@@H](OCCCO)[C@H](OC)C2)CC(=O)[C@H](C)/C=C(\C)[C@@H](O)[C@@H](OC)C(=O)[C@H](C)C[C@H](C)/C=C/C=C/C=C/1C (mixture of isomers) [Compound 17] |
| > 10000 | – | – | < 0.316 | COCCCO[C@@H]1CC[C@@H](C[C@@H](C)[C@@H]2CC(=O)[C@H](C)/C=C(\C)[C@@H](O)[C@@H](OC)C(=O)[C@H](C)C[C@H](C)/C=C/C=C/C=C(\C)C(OCCO)C[C@@H]3CC[C@@H](C)[C@@](O)(O3)C(=O)C(=O)N3CCCCC3C(=O)O2)C[C@H]1OC (stereo partly shown) [Compound 3] |
| > 10000 | – | – | < 0.316 | CO[C@@H]1C[C@H](C[C@@H](C)[C@@H]2CC(=O)[C@H](C)/C=C(\C)[C@@H](O)[C@@H](OC)C(=O)[C@H](C)C[C@H](C)/C=C/C=C/C=C(\C)C(OCCO)C[C@@H]3CC[C@@H](C)[C@@](O)(O3)C(=O)C(=O)N3CCCCC3C(=O)O2)CC[C@H]1OCCCO (stereo partly shown) [Compound 10] |
| > 10000 | – | – | < 0.316 | COCCCO[C@@H]1CC[C@@H](C[C@@H](C)[C@@H]2CC(=O)[C@H](C)/C=C(\C)[C@@H](O)[C@@H](OC)C(=O)[C@H](C)C[C@H](C)/C=C/C=C/C=C(\C)C(OCCOC)C[C@@H]3CC[C@@H](C)[C@@](O)(O3)C(=O)C(=O)N3CCCCC3C(=O)O2)C[C@H]1OC (stereo partly shown) [Compound 14] |
| > 10000 | – | – | < 0.316 | CO[C@@H]1C[C@H](C[C@@H](C)[C@@H]2CC(=O)[C@H](C)/C=C(\C)[C@@H](O)[C@@H](OC)C(=O)[C@H](C)C[C@H](C)/C=C/C=C/C=C(\C)C(OCCCO)C[C@@H]3CC[C@@H](C)[C@@](O)(O3)C(=O)C(=O)N3CCCCC3C(=O)O2)CC[C@H]1OCCO (stereo partly shown) [Compound 15] |
| > 10000 | – | – | < 0.316 | COCCOCCOC1C[C@@H]2CC[C@@H](C)[C@@](O)(O2)C(=O)C(=O)N2CCCCC2C(=O)O[C@H]([C@H](C)C[C@@H]2CC[C@@H](OCCO)[C@H](OC)C2)CC(=O)[C@H](C)/C=C(\C)[C@@H](O)[C@@H](OC)C(=O)[C@H](C)C[C@H](C)/C=C/C=C/C=C/1C (stereo partly shown) [Compound 20] |
| 1000 to 10000 | – | – | < 0.316 | COCCOC1C[C@@H]2CC[C@@H](C)[C@@](O)(O2)C(=O)C(=O)N2CCCCC2C(=O)O[C@H]([C@H](C)C[C@@H]2CC[C@@H](OCCCO)[C@H](OC)C2)CC(=O)[C@H](C)/C=C(\C)[C@@H](O)[C@@H](OC)C(=O)[C@H](C)C[C@H](C)/C=C/C=C/C=C/1C (stereo partly shown) [Compound 28] |
| 1000 to 10000 | – | – | < 0.316 | COCCCOC1C[C@@H]2CC[C@@H](C)[C@@](O)(O2)C(=O)C(=O)N2CCCCC2C(=O)O[C@H]([C@H](C)C[C@@H]2CC[C@@H](OCCO)[C@H](OC)C2)CC(=O)[C@H](C)/C=C(\C)[C@@H](O)[C@@H](OC)C(=O)[C@H](C)C[C@H](C)/C=C/C=C/C=C/1C (stereo partly shown) [Compound 31] |
